# Measurements: patent US11807644B2 (PMV Pharmaceuticals, Inc., priority 2020, dated 2023)
# Biological target: T1, recombinant His-tag Y220C p53 DBD protein (Homo sapiens, UniProt P04637, Y220C)
# T1 construct: recombinant His-tag Y220C p53 DBD protein (amino acids #˜94-312)
# Test: In vitro DNA binding activity assay (TR-FRET): binding of His-tag Y220C p53 DBD to biotin-labeled consensus DNA
# Assay type: biochemical
# Conditions: SC150 = concentration to increase DNA binding by […], His-tag Y220C p53 DBD, biotin-labeled consensus DNA
row,Y220C SC150 (μM),SMILES
1,* (* = 0 μM ≤ SC150 < 0.1 μM),"CN1CC[C@@H](Nc2cccc3c2cc(-c2nc(CNC(=O)C4CC4)no2)n3CC(F)(F)F)[C@@H](F)C1 (racemic) [Compound 275B, (+/−)-N-{[5-(4-{[(3R,4S)-3-fluoro-1-methylpiperidin-4-yl]amino}-1-(2,2,2-trifluoroethyl)-1H-indol-2-yl)-1,2,4-oxadiazol-3-yl]methyl}cyclopropanecarboxamide]"
2,* (* = 0 μM ≤ SC150 < 0.1 μM),"CN1CC[C@@H](Nc2cccc3c2cc(-c2noc(CNC(=O)c4cccc(N(C)C)c4)n2)n3CC(F)(F)F)[C@@H](F)C1 [Compound 242B, 3-(dimethylamino)-N-{[3-(4-{[(3S,4R)-3-fluoro-1-methylpiperidin-4-yl]amino}-1-(2,2,2-trifluoroethyl)-1H-indol-2-yl)-1,2,4-oxadiazol-5-yl]methyl}benzamide]"
3,* (* = 0 μM ≤ SC150 < 0.1 μM),"CN1CC[C@@H](Nc2cccc3c2cc(-c2nc(CNC(=O)c4ccccc4)no2)n3CC(F)(F)F)[C@@H](F)C1 (racemic) [Compound 276B, (+/−)-N-{[5-(4-{[(3R,4S)-3-fluoro-1-methylpiperidin-4-yl]amino}-1-(2,2,2-trifluoroethyl)-1H-indol-2-yl)-1,2,4-oxadiazol-3-yl]methyl}benzamide]"
4,* (* = 0 μM ≤ SC150 < 0.1 μM),"CN1CC[C@@H](Nc2cccc3c2cc(-c2noc(CNC(=O)c4cncn4CCF)n2)n3CC(F)(F)F)[C@@H](F)C1 [Compound 556B, N-{[3-(4-{[(3S,4R)-3-fluoro-1-methylpiperidin-4-yl]amino}-1-(2,2,2-trifluoroethyl)-1H-indol-2-yl)-1,2,4-oxadiazol-5-yl]methyl}-1-(2-fluoroethyl)-1H-imidazole-5-carboxamide]"
5,* (* = 0 μM ≤ SC150 < 0.1 μM),"COCC1(n2ccc(C(=O)NCc3nc(-c4cc5c(N[C@H]6CCN(C)C[C@H]6C)cccc5n4CC(F)(F)F)no3)c2)CC1 [Compound 505B, N-{[3-(4-{[(3R,4S)-1,3-dimethylpiperidin-4-yl]amino}-1-(2,2,2-trifluoroethyl)-1H-indol-2-yl)-1,2,4-oxadiazol-5-yl]methyl}-1-[1-(methoxymethyl)cyclopropyl]-1H-pyrrole-3-carboxamide]"
6,* (* = 0 μM ≤ SC150 < 0.1 μM),"CN1CC[C@@H](Nc2cccc3c2cc(-c2noc(CNC(=O)c4ccn(C5CCC(N(C)C)C5)c4)n2)n3CC(F)(F)F)[C@@H](F)C1 (stereo in doubt) [Compound 361B, 1-[(1R,3R)-3-(dimethylamino)cyclopentyl]-N-{[3-(4-{[(3S,4R)-3-fluoro-1-methylpiperidin-4-yl]amino}-1-(2,2,2-trifluoroethyl)-1H-indol-2-yl)-1,2,4-oxadiazol-5-yl]methyl}-1H-pyrrole-3-carboxamide]"
7,**** (**** = 1 μM ≤ SC150 < 10 μM),"O=S1(=O)CCC(Nc2cccc3c2cc(-c2cnn(Cc4cccnc4)c2)n3CC(F)(F)F)CC1 [Compound 16B, 4-[(2-{1-[(pyridin-3-yl)methyl]-1H-pyrazol-4-yl}-1-(2,2,2-trifluoroethyl)-1H-indol-4-yl)amino]-1λ^6-thiane-1,1-dione]"
8,* (* = 0 μM ≤ SC150 < 0.1 μM),"CN1CCC(Nc2cccc3c2cc(-c2nnc(CNC(=O)[C@@H]4C[C@H]4C(=O)O)s2)n3CC(F)(F)F)CC1 (racemic) [Compound 76B, (+/−)-(1R,2R)-2-{[(5-{4-[(1-methylpiperidin-4-yl)amino]-1-(2,2,2-trifluoroethyl)-1H-indol-2-yl}-1,3,4-thiadiazol-2-yl)methyl]carbamoyl}cyclopropane-1-carboxylic acid]"
9,* (* = 0 μM ≤ SC150 < 0.1 μM),"CN1CC[C@@H](Nc2cccc3c2cc(-c2noc(CNC(=O)c4cnn(C5CCCC5)c4)n2)n3CC(F)(F)F)[C@@H](F)C1 [Compound 312B, 1-cyclopentyl-N-{[3-(4-{[(3S,4R)-3-fluoro-1-methylpiperidin-4-yl]amino}-1-(2,2,2-trifluoroethyl)-1H-indol-2-yl)-1,2,4-oxadiazol-5-yl]methyl}-1H-pyrazole-4-carboxamide]"
10,* (* = 0 μM ≤ SC150 < 0.1 μM),CN1CC[C@@H](Nc2cccc3c2cc(-c2noc(CNC(=O)c4ccn(C(C)(C)CO)c4)n2)n3CC(F)(F)F)[C@@H](F)C1 [Compound 441B]
11,* (* = 0 μM ≤ SC150 < 0.1 μM),"CN1CC[C@H](Nc2cccc3c2cc(-c2nnc(CNC(=O)c4cccs4)s2)n3CC(F)(F)F)[C@H](F)C1 (racemic) [Compound 30B, (+/−)-N-{[5-(4-{[(3R,4S)-3-fluoro-1-methylpiperidin-4-yl]amino}-1-(2,2,2-trifluoroethyl)-1H-indol-2-yl)-1,3,4-thiadiazol-2-yl]methyl}thiophene-2-carboxamide]"
12,* (* = 0 μM ≤ SC150 < 0.1 μM),"CC(C)Cn1ccc(C(=O)NCc2nc(-c3cc4c(N[C@@H]5CCN(C)C[C@@H]5F)cccc4n3CC(F)(F)F)no2)c1 [Compound 240B, N-{[3-(4-{[(3S,4R)-3-fluoro-1-methylpiperidin-4-yl]amino}-1-(2,2,2-trifluoroethyl)-1H-indol-2-yl)-1,2,4-oxadiazol-5-yl]methyl}-1-(2-methylpropyl)-1H-pyrrole-3-carboxamide]"
13,* (* = 0 μM ≤ SC150 < 0.1 μM),"CN1CC[C@@H](Nc2cccc3c2cc(-c2noc(CNC(=O)c4ccn(C5CCCC5)c4)n2)n3CC(F)(F)F)[C@@H](F)C1 [Compound 319B, 1-cyclopentyl-N-{[3-(4-{[(3S,4R)-3-fluoro-1-methylpiperidin-4-yl]amino}-1-(2,2,2-trifluoroethyl)-1H-indol-2-yl)-1,2,4-oxadiazol-5-yl]methyl}-1H-pyrrole-3-carboxamide]"
14,* (* = 0 μM ≤ SC150 < 0.1 μM),"COc1cc(S(C)(=O)=O)ccc1NCc1cnc(-c2cc3c(N[C@@H]4CCN(C)C[C@@H]4F)cccc3n2CC(F)(F)F)s1 [Compound 99B, N-[(3S,4R)-3-fluoro-1-methylpiperidin-4-yl]-2-(5-{[(4-methanesulfonyl-2-methoxyphenyl)amino]methyl}-1,3-thiazol-2-yl)-1-(2,2,2-trifluoroethyl)-1H-indol-4-amine]"
15,** (** = 0.1 μM ≤ SC150 < 0.5 μM),"CN1CC[C@@H](Nc2cccc3c2cc(-c2cc(CNC(=O)c4ccn(C(C)(C)C)c4)cs2)n3CC(F)(F)F)[C@@H](F)C1 [Compound 283B, 1-tert-butyl-N-{[5-(4-{[(3S,4R)-3-fluoro-1-methylpiperidin-4-yl]amino}-1-(2,2,2-trifluoroethyl)-1H-indol-2-yl)thiophen-3-yl]methyl}-1H-pyrrole-3-carboxamide]"
16,* (* = 0 μM ≤ SC150 < 0.1 μM),"CC(C)Cn1cccc1C(=O)NCc1nc(-c2cc3c(N[C@@H]4CCN(C)C[C@@H]4F)cccc3n2CC(F)(F)F)no1 [Compound 535B, N-{[3-(4-{[(3S,4R)-3-fluoro-1-methylpiperidin-4-yl]amino}-1-(2,2,2-trifluoroethyl)-1H-indol-2-yl)-1,2,4-oxadiazol-5-yl]methyl}-1-(2-methylpropyl)-1H-pyrrole-2-carboxamide]"
17,* (* = 0 μM ≤ SC150 < 0.1 μM),"CN1CCC(Nc2cccc3c2cc(-c2noc(CNC(=O)[C@@H]4C[C@H]4F)n2)n3CC(F)(F)F)CC1 (racemic) [Compound 145B, (1S,2R)-2-fluoro-N-[(3-{4-[(1-methylpiperidin-4-yl)amino]-1-(2,2,2-trifluoroethyl)-1H-indol-2-yl}-1,2,4-oxadiazol-5-yl)methyl]cyclopropane-1-carboxamide]"
18,* (* = 0 μM ≤ SC150 < 0.1 μM),"CN1CC[C@@H](F)[C@@H](Nc2cccc3c2cc(-c2noc(CNC(=O)c4cnn(C(C)(C)C)c4)n2)n3CC(F)(F)F)C1 [Compound 409B, Tert-butyl-N-[[3-[4-[[(3S,4R)-4-fluoro-1-methyl-3-piperidyl]amino]-1-(2,2,2-trifluoroethyl)indol-2-yl]-1,2,4-oxadiazol-5-yl]methyl]pyrazole-4-carboxamide]"
19,** (** = 0.1 μM ≤ SC150 < 0.5 μM),"CN1CCC(Nc2cccc3c2cc(-c2nc(CNC(=O)c4ccccc4)no2)n3CC(F)(F)F)CC1 [Compound 138B, N-[(5-{4-[(1-methylpiperidin-4-yl)amino]-1-(2,2,2-trifluoroethyl)-1H-indol-2-yl}-1,2,4-oxadiazol-3-yl)methyl]benzamide]"
20,* (* = 0 μM ≤ SC150 < 0.1 μM),"CN1CC[C@@H](Nc2cccc3c2cc(-c2noc(CNC(=O)c4csc(N)c4)n2)n3CC(F)(F)F)[C@@H](F)C1 [Compound 429B, 5-amino-N-{[3-(4-{[(3S,4R)-3-fluoro-1-methylpiperidin-4-yl]amino}-1-(2,2,2-trifluoroethyl)-1H-indol-2-yl)-1,2,4-oxadiazol-5-yl]methyl}thiophene-3-carboxamide]"
21,* (* = 0 μM ≤ SC150 < 0.1 μM),"COCC(C)n1cc(C(=O)NCc2nc(-c3cc4c(N[C@@H]5CCN(C)C[C@@H]5F)cccc4n3CC(F)(F)F)no2)cn1 (stereo partly drawn) [Compound 302B, N-{[3-(4-{[(3S,4R)-3-fluoro-1-methylpiperidin-4-yl]amino}-1-(2,2,2-trifluoroethyl)-1H-indol-2-yl)-1,2,4-oxadiazol-5-yl]methyl}-1-(1-methoxypropan-2-yl)-1H-pyrazole-4-carboxamide]"
22,** (** = 0.1 μM ≤ SC150 < 0.5 μM),"CN1CCC(Nc2cccc3c2cc(-c2nnc(CNC(=O)N(C)C)s2)n3CC(F)(F)F)CC1 [Compound 68B, 3,3-dimethyl-1-[(5-{4-[(1-methylpiperidin-4-yl)amino]-1-(2,2,2-trifluoroethyl)-1H-indol-2-yl}-1,3,4-thiadiazol-2-yl)methyl]urea]"

# Same assay, conditions: concentration to increase DNA binding by […], incubated at either 27° C. or 29° C. for 60 min
row,SC150 (μM),SMILES
1,+ (+ = 0 μM ≤ SC150 < 2 μM),"CN1CC[C@H](Nc2cccc3c2cc(-c2ccc(CNC(=O)C4CC4)cc2)n3CC(F)(F)F)[C@H](F)C1 (racemic) [Compound 46A, (+/−)-N-{[4-(4-{[(3R,4S)-3-fluoro-1-methylpiperidin-4-yl]amino}-1-(2,2,2-trifluoroethyl)-1H-indol-2-yl)phenyl]methyl}cyclopropanecarboxamide]"
2,++++ (++++ = 10 μM ≤ SC150 < 35 μM),"NC(=O)c1ccc(-c2cc3c(NC4CCS(=O)(=O)CC4)cccc3n2CC(F)(F)F)cc1 [Compound 1A, 4-{4-[(1,1-dioxo-1λ^6-thian-4-yl)amino]-1-(2,2,2-trifluoroethyl)-1H-indol-2-yl}benzamide]"
